Patent US20090110718A1, “Derivatives of tiacumicin B as anti-cancer agents” (Echem Hightech Co., Ltd., priority 2007, published 2009)

Experiments:
Type in all cases: cell-based, human
MCF7 breast cancer cells = assay: Cell viability assay (MTT), MCF7; conditions: for IC50: 72 hrs treatment, 1 to 10 μM tested, MTT, ± SD, read-out: Observed IC50 for MCF7 breast cancer cells
Experimental: (§1) Experiments were performed using different cancer cell-lines, which were supplied by the American Type Culture Collection (ATCC), Rockville, Md., USA, and maintained in the recommended culturing media. The detailed steps and condition for cell culture are described as the following: MCF7, human breast adenocarcinoma: Minimum essential medium (Eagle) with 2 mM L-glutamine and Earle's BSS adjusted to contain 1.5 g/L sodium bicarbonate, 0.1 mM non-essential amino acids and 1.0 mM sodium pyruvate and supplemented with 0.01 mg/ml insulin, 90%; fetal bovine serum, 10%. […] All test samples were dissolved in absolute ethanol and serial diluted to the testing concentrations. For blank sample, absoluted ethanol was used. The final organic solvent content for all cell assays were less than or equal to 0.1%. The cell viability assay was conducted by using the method described by J. Carmichael, et al in Cancer Research 47:936 (1987). All the cells were seeded into 96-well microtitre plates and incubated at 37° C. under 5% CO2 atmosphere. For MCF7, T-47D and WS1, 3000 cells/100 μl/well were used and for HeLa, 1000 cells/100 μl/well were used. […] After additional 72 hours of incubation at 37° C. under 5% CO2 atmosphere, the cell were then collected and evaluated using MTT assay to assess the cell viability by using the method mentioned above. […] Cultures containing 3000 cells per well were treated with 0, 1, 2.5, 5 and 10 μM (final concentration) of the test samples and the viable cells were counted after 72 hrs. […] In both FIG. 1 and FIG. 2, error bars are indicated the estimated standard deviation based on three experiments.

[1] = tested on: T-47D breast cancer cells; assay: Cell viability assay (MTT), T-47D; conditions: 72 hrs treatment, 1 to 10 μM tested, ± SD, read-out: Observed IC50 for T-47D breast cancer cells
Experimental: as §1, with “media.” for “media. The detailed steps and condition for cell culture are described as the following: MCF7, human breast adenocarcinoma: Minimum essential medium (Eagle) with 2 mM L-glutamine and Earle's BSS adjusted to contain 1.5 g/L sodium bicarbonate, 0.1 mM non-essential amino acids and 1.0 mM sodium pyruvate and supplemented with 0.01 mg/ml insulin, 90%; fetal bovine serum, 10%.”

[2] = tested on: HeLa cervical cancer cells; assay: Cell viability assay (MTT), HeLa; conditions: for IC50: 72 hrs treatment, 1 to 10 μM tested, MTT, ± SD, read-out: Observed IC50 for HeLa cervial cancer cells
Experimental: Experiments were performed using different cancer cell-lines, which were supplied by the American Type Culture Collection (ATCC), Rockville, Md., USA, and maintained in the recommended culturing media. The detailed steps and condition for cell culture are described as the following: HeLa, humen cervical adenocarcinoma: Minimum essential medium (Eagle) with 2 mM L-glutamine and Earle's BSS adjusted to contain 1.5 g/L sodium bicarbonate, 0.1 mM non-essential amino acids and 1.0 mM sodium pyruvate and supplemented with 0.01 mg/ml insulin, 90%; fetal bovine serum, 10%. […] All test samples were dissolved in absolute ethanol and serial diluted to the testing concentrations. For blank sample, absoluted ethanol was used. The final organic solvent content for all cell assays were less than or equal to 0.1%. The cell viability assay was conducted by using the method described by J. Carmichael, et al in Cancer Research 47:936 (1987). All the cells were seeded into 96-well microtitre plates and incubated at 37° C. under 5% CO2 atmosphere. For MCF7, T-47D and WS1, 3000 cells/100 μl/well were used and for HeLa, 1000 cells/100 μl/well were used. […] After additional 72 hours of incubation at 37° C. under 5% CO2 atmosphere, the cell were then collected and evaluated using MTT assay to assess the cell viability by using the method mentioned above. Error bars are indicated the estimated standard deviation based on three experiments.

Row | Compound | IC50 (MCF7 breast cancer cells) [µM] | IC50 [1] [µM] | IC50 [2] [µM] | IC50 value compared with tamoxifen, HeLa ([2]; statement in words) | IC50 value compared with tamoxifen, MCF7 (MCF7 breast cancer cells; statement in words)
1 | tiacumicin B [tiacumicin B (TB), reference compound] | 8.39 ± 1 | 5.56 ± 0.57 | 8.54 ± 1.03 | – | –
2 | CCc1c(Cl)c(O)c(Cl)c(O)c1C(=O)O[C@@H]1[C@@H](O)[C@@H](OC)[C@@H](OC/C2=C\C=C\CC(O)/C(C)=C/C(CC)C(O[C@@H]3OC(C)(C)[C@H]4OC(c5ccc(N(CC)CC)cc5)O[C@@H]4[C@@H]3OC(=O)C(C)C)/C(C)=C/C(C)=C/CC(C(C)O)OC2=O)O[C@H]1C (some centres unmarked) [TB6, 4-N,N-diethylaminobenzylidene acetal] | 5.98 ± 0.54 | 4.77 ± 0.51 | 5.56 ± 0.13 | superior to that of tanoxifen | –
3 | CCc1c(Cl)c(O)c(Cl)c(O)c1C(=O)O[C@@H]1[C@@H](O)[C@@H](OC)[C@@H](OC/C2=C\C=C\CC(O)/C(C)=C/C(CC)C(O[C@@H]3OC(C)(C)[C@H]4OC(c5cccc(O)c5)O[C@@H]4[C@@H]3OC(=O)C(C)C)/C(C)=C/C(C)=C/CC(C(C)O)OC2=O)O[C@H]1C (some centres unmarked) [TB2, 3-hydroxylbenzylidene acetal] | 6.9 ± 0.36 | 4.24 ± 0.05 | 5.98 ± 0.22 | – | superior to that of tamoxifen
4 | CCc1c(Cl)c(O)c(Cl)c(O)c1C(=O)O[C@@H]1[C@@H](O)[C@@H](OC)[C@@H](OC/C2=C\C=C\CC(O)/C(C)=C/C(CC)C(O[C@@H]3OC(C)(C)[C@H]4OC(c5cccc(OC)c5)O[C@@H]4[C@@H]3OC(=O)C(C)C)/C(C)=C/C(C)=C/CC(C(C)O)OC2=O)O[C@H]1C (some centres unmarked) [TB3, 3-methoxylbenzylidene acetal] | 7.09 ± 0.54 | 4.99 ± 0.22 | 5.99 ± 0.45 | – | –

Further lines, with some results ahead:

Row | IC50 (MCF7 breast cancer cells) [µM] | IC50 [1] [µM] | IC50 [2] [µM] | Compound | IC50 value compared with tamoxifen, HeLa ([2]; statement in words) | IC50 value compared with tamoxifen, MCF7 (MCF7 breast cancer cells; statement in words)
5 | 6.19 ± 0.68 | 4.8 ± 0.46 | 5.3 ± 0.49 | CCc1c(Cl)c(O)c(Cl)c(O)c1C(=O)O[C@@H]1[C@@H](O)[C@@H](OC)[C@@H](OC/C2=C\C=C\CC(O)/C(C)=C/C(CC)C(O[C@@H]3OC(C)(C)[C@H]4OC(c5ccc(N(CC)CC)cc5OC)O[C@@H]4[C@@H]3OC(=O)C(C)C)/C(C)=C/C(C)=C/CC(C(C)O)OC2=O)O[C@H]1C (some centres unmarked) [TB7, 4-N,N-diethylamino-2-methoxybenzylidene acetal] | – | –
6 | 5.78 ± 0.81 | 4.04 ± 1.09 | 5.76 ± 0.32 | CCc1c(Cl)c(O)c(Cl)c(O)c1C(=O)O[C@@H]1[C@@H](O)[C@@H](OC)[C@@H](OC/C2=C\C=C\CC(O)/C(C)=C/C(CC)C(O[C@@H]3OC(C)(C)[C@H]4OC(c5cc(C(C)(C)C)c(O)c(C(C)(C)C)c5)O[C@@H]4[C@@H]3OC(=O)C(C)C)/C(C)=C/C(C)=C/CC(C(C)O)OC2=O)O[C@H]1C (some centres unmarked) [TB8, 4,5-tert-dibutyl-4-hydroxybenzylidene acetal] | – | –
7 | 7.06 ± 0.83 | 3.99 ± 0.58 | 5.88 ± 0.42 | CCc1c(Cl)c(O)c(Cl)c(O)c1C(=O)O[C@@H]1[C@@H](O)[C@@H](OC)[C@@H](OC/C2=C\C=C\CC(O)/C(C)=C/C(CC)C(O[C@@H]3OC(C)(C)[C@H]4OC(c5ccccc5C)O[C@@H]4[C@@H]3OC(=O)C(C)C)/C(C)=C/C(C)=C/CC(C(C)O)OC2=O)O[C@H]1C (some centres unmarked) [TB1, 2-methylbenzylidene acetal] | – | –
8 | 5.95 ± 0.46 | 4.66 ± 0.57 | 5.6 ± 0.37 | CCc1c(Cl)c(O)c(Cl)c(O)c1C(=O)O[C@@H]1[C@@H](O)[C@@H](OC)[C@@H](OC/C2=C\C=C\CC(O)/C(C)=C/C(CC)C(O[C@@H]3OC(C)(C)[C@H]4OC(c5ccccc5C(F)(F)F)O[C@@H]4[C@@H]3OC(=O)C(C)C)/C(C)=C/C(C)=C/CC(C(C)O)OC2=O)O[C@H]1C (some centres unmarked) [TB5, 2-trifluoromethylbenzylidene acetal] | – | –
9 | 6.81 ± 0.01 | 5.66 ± 0.62 | 5.69 ± 0.24 | CCc1c(Cl)c(O)c(Cl)c(O)c1C(=O)O[C@@H]1[C@@H](O)[C@@H](OC)[C@@H](OC/C2=C\C=C\CC(O)/C(C)=C/C(CC)C(O[C@@H]3OC(C)(C)[C@H]4OC(c5ccccc5Cl)O[C@@H]4[C@@H]3OC(=O)C(C)C)/C(C)=C/C(C)=C/CC(C(C)O)OC2=O)O[C@H]1C (some centres unmarked) [TB4, 2-chlorobenzylidene acetal] | – | –
